How the values were obtained:
[1] = target: T1, human sodium channels Nav 1.8 (Homo sapiens, UniProt Q9Y5Y9); assay: Automated whole-cell voltage-clamp (ScreenPatch 384P) sodium current block, Nav 1.8; assay type: cell-based; details: CHO cells stably expressing human Nav 1.8; inactivation step -40 mV for 8 seconds, test step 10 mV (TP1A); exposure at least five minutes; room temperature; mean if two or more assays; read-out: Nav1.8 IC50
T1 construct: expressed in transfected cells
Experimental: (§1) Biological assays were performed on Chinese hamster ovary (CHO) cells that express human sodium channels Nav 1.8 or Nav 1.7 in a stable manner.
(§2) The experimental protocol voltage-clamp using the whole cell configuration was established on the automated ScreenPatch® 384P platform (SP384PE, Nanion Technologies, Livingston, NJ) and the results were recorded with a Nanion 384-well Patch Clamp chip (NPC) (Nanion Technologies, Livingston, NJ).
(§3) Formula I compounds were diluted in eight concentrations in the extracellular solution composed of saline saline solution, buffered with HEPES (mM): NaCl, 137; KCl, 4; CaCl2, 3,8; MgCl2, 1; HEPES, 10; Glucose, 10; pH 7.4. The […], 50; CsF, 90; MgCl2, 5; EGTA, 5; HEPES, 10; pH 7.2. The duration of exposure of each compound with cells expressing Nav 1.7 or Nav 1.8 was at least five minutes and the assays were performed at room temperature.
(§4) The measurements of the sodium currents of Nav 1.8 and Nav 1.7 were obtained using the voltage protocol described below.
(§5) A holding voltage of -100 mV was established followed by an inactivation voltage step at -40 mV for 8 seconds, followed by a step of -100 mV for 20 ms, followed by a 20 ms step for 10 mV for Nav 1.8 or 0 mV for Nav 1.7 (TP1A) before returning to the holding voltage of -100 mV.
(§6) The protocol was repeated at a frequency of 0.05 Hz and the amplitude of the current was quantified throughout the recording of the TP1A phase. The variation in the amplitude of the peak current was evaluated according to the formula described below, after exposing the cells expressing the channels to each concentration of the different compounds: % Block = (1−(ITP1A,molecule/ITP1A,basal)×100%, [formula] wherein ITP1A,basal and ITP1A,molecule represent the peaks of sodium current input into TP1A before exposure to the compound and in the presence of the compound, respectively.
(§7) Data were obtained by nonlinear regression (nonlinear least squares) with XLfit for Excel (Microsoft, Redmond, WA).
(§8) The compounds were tested in at least one assay to obtain the value of CI50. For compounds that were tested in two or more assays, the results are described as the mean of the CI50 values.

[2] = target: T2, human sodium channels Nav 1.7 (Homo sapiens, UniProt Q15858); assay: Automated whole-cell voltage-clamp (ScreenPatch 384P) sodium current block, Nav 1.7; assay type: cell-based; details: CHO cells stably expressing human Nav 1.7; inactivation step -40 mV for 8 seconds, test step 0 mV (TP1A); exposure at least five minutes; room temperature; mean if two or more assays; read-out: Nav1.7 IC50
T2 construct: expressed in transfected cells
Experimental: as §1, §2, §3, §4, §5, §6, §7, §8

T1 sequence (Q9Y5Y9 whole entry): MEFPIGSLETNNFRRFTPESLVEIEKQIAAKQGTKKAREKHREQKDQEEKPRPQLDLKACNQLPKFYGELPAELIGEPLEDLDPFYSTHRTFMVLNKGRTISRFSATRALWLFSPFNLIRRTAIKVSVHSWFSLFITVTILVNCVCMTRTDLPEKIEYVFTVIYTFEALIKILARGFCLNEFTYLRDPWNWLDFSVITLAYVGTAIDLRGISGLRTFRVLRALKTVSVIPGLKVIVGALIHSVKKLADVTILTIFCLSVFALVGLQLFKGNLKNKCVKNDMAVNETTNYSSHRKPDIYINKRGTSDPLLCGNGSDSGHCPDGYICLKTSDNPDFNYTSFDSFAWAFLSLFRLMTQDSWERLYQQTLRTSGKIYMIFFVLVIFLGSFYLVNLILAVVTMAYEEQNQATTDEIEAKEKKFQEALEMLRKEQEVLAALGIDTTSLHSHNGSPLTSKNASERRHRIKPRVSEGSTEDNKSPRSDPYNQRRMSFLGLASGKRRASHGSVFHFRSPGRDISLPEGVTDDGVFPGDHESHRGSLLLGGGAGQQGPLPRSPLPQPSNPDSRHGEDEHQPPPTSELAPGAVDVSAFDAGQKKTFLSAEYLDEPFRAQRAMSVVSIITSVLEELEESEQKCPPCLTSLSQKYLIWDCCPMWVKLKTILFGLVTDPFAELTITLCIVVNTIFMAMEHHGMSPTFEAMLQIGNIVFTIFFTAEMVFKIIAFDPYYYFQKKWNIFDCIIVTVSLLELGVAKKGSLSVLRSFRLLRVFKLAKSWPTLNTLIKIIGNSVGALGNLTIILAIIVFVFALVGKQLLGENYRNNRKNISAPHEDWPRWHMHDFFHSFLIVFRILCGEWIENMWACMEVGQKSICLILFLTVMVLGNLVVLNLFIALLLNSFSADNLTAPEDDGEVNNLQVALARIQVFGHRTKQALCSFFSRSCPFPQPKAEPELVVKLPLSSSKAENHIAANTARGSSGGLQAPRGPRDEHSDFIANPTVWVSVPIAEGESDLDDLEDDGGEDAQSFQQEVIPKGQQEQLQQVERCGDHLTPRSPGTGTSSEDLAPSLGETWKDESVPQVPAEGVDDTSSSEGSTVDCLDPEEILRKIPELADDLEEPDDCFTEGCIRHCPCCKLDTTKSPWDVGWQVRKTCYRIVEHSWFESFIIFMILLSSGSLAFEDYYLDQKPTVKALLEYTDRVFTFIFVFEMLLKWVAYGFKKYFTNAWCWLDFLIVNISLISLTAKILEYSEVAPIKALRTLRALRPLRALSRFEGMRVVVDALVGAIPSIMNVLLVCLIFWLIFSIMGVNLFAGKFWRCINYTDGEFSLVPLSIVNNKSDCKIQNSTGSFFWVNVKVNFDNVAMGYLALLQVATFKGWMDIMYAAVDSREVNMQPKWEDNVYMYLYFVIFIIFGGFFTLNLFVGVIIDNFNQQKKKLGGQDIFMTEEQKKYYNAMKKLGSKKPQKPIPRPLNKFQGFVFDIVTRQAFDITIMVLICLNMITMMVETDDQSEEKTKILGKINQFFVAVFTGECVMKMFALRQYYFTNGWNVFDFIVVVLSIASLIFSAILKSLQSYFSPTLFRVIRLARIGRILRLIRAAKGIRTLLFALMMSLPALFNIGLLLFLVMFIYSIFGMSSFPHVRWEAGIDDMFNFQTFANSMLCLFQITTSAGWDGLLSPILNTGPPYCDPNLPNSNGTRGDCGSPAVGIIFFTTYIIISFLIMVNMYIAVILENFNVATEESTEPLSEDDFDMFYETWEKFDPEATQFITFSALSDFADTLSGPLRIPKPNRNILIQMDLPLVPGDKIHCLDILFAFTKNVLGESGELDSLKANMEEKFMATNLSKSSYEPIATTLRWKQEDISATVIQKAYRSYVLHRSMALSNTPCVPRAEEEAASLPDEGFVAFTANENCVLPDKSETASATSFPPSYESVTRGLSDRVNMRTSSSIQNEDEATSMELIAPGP
T2 sequence (Q15858 whole entry): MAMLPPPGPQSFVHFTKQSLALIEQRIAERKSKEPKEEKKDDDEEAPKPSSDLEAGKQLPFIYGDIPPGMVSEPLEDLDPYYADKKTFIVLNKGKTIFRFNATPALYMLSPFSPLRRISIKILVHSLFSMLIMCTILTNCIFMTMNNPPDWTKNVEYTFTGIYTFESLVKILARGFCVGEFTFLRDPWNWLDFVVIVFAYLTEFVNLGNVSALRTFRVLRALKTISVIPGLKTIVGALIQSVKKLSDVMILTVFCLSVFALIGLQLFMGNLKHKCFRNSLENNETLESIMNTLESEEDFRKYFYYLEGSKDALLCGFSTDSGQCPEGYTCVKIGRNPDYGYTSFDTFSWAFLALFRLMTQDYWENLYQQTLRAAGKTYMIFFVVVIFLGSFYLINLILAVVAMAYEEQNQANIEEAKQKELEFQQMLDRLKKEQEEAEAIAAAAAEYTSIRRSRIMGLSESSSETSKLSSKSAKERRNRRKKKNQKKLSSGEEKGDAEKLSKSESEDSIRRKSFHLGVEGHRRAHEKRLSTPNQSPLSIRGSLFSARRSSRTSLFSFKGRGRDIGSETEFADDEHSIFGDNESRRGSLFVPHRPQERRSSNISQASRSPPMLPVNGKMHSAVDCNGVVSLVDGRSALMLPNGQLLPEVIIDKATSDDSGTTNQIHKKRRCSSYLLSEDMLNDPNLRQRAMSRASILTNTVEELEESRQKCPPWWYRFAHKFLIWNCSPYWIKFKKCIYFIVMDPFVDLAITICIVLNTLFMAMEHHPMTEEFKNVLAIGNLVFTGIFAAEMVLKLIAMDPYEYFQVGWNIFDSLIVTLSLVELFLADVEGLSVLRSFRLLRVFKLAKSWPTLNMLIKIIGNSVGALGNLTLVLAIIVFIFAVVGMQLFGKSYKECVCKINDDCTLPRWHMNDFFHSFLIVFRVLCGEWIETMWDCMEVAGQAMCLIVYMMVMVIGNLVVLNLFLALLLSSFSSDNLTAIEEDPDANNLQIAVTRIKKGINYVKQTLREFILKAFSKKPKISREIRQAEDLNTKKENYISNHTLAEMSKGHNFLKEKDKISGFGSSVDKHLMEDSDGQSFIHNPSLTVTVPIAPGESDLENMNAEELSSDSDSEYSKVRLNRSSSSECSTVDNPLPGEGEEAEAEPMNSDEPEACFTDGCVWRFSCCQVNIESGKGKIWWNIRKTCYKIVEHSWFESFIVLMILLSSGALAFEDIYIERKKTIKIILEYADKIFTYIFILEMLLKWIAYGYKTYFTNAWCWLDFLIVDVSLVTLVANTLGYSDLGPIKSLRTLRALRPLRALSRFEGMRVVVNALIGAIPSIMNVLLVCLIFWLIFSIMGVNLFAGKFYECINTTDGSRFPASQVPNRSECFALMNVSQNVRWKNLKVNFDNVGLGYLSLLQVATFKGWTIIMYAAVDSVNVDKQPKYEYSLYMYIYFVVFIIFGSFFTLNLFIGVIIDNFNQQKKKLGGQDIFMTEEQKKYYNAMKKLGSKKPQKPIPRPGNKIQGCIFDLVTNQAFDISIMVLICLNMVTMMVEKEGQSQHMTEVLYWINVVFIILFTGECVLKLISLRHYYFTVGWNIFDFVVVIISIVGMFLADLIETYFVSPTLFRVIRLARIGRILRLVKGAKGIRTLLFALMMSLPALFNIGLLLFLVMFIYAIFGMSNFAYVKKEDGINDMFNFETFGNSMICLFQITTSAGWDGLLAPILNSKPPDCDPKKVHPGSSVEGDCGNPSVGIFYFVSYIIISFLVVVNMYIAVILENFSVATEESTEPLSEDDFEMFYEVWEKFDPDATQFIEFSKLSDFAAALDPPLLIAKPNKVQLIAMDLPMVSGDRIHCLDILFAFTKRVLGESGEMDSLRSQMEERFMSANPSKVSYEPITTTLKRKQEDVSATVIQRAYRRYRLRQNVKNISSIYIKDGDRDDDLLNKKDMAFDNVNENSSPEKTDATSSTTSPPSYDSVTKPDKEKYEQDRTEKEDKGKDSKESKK

Compound | IC50 [1] [nM] | IC50 [2] [nM]
CCOc1ccc(-c2nc(C(=O)NOCc3cc(OC)cc(OC)c3)cnc2O)cc1 [Compound 96] | < 500 | < 500
COc1ccc(F)c(CONC(=O)c2cncc(-c3ccc(OC(F)F)cc3OC)n2)c1 [Compound 88] | > 1000 | > 1000
CN(C)c1ccc(F)c(CONC(=O)c2cncc(-c3ccc(OC(F)F)nc3)n2)c1 [Compound 81] | > 1000 | > 1000
COc1ccc(F)c(CONC(=O)c2cncc(-c3ccc(O)cc3)n2)c1 [Compound 1, N-((2-fluoro-5-methoxybenzyl)oxy)-6-(4-hydroxyphenyl)pyrazine-2-carboxamide] | > 1000 | > 1000
CCOc1ccc(-c2cnc(F)c(C(=O)NOCc3cc(OC)ccc3F)n2)cn1 [Compound 105] | 500 to 1000 | > 1000
CCOc1ccc(-c2nccc(C(=O)NOCc3cc(OC)cnc3F)n2)cn1 [Compound 110] | < 500 | 500 to 1000
CCOc1ccc(-c2nc(C(=O)NOCc3cc(OC)ccc3F)cnc2O)cn1 [Compound 100] | < 500 | > 1000
CCOc1ccc(-c2cncc(C(=O)NOCc3cncn3C)n2)cn1 [Compound 56] | < 500 | 500 to 1000
CCOc1ccc(-c2nc(C(=O)NOCc3cc(OC)ccc3F)cnc2F)cn1 [Compound 104] | < 500 | > 1000
COc1cnc(F)c(CONC(=O)c2nc(-c3ccc(OC(F)F)nc3)cnc2N)c1 [Compound 120] | > 1000 | > 1000
COc1ccc(F)c(CONC(=O)c2cccc(-c3ccc(OC(F)F)nc3)n2)c1 [Compound 115] | > 1000 | > 1000
CCOc1ccc(-c2cncc(C(=O)NOCc3cc(OC)ccc3F)n2)cc1O [Compound 89] | < 500 | > 1000
CCOc1ccc(-c2cncc(C(=O)NOCc3cncn3C(C)C)n2)cn1 [Compound 63] | > 1000 | > 1000
O=C(NOCc1ccccc1F)c1cncc(-c2ccc(OC(F)(F)F)nc2)n1 [Compound 71] | < 500 | < 500
CCOc1ccc(-c2cncc(C(=O)NOCc3cn(C(C)C)cn3)n2)cn1 [Compound 70] | < 500 | 500 to 1000
CN(C)c1cnc(F)c(CONC(=O)c2cncc(-c3ccc(OC(F)F)nc3)n2)c1 [Compound 80] | 500 to 1000 | > 1000
O=C(NOCc1ccncc1)c1cncc(-c2ccc(OC(F)(F)F)nc2)n1 [Compound 75] | < 500 | < 500
[2H]C([2H])([2H])C([2H])([2H])Oc1ccc(-c2cncc(C(=O)NOCc3cc(OC)ccc3F)n2)cn1 [Compound 48, 6-(6-(ethoxy-d5)pyridine-3-yl)-N-((2-fluoro-5-methoxybenzyl)oxy)pyrazine-2-carboxamide] | > 1000 | > 1000

Further lines, results first:

IC50 [1] [nM] | IC50 [2] [nM] | Compound
> 1000 | > 1000 | CCOc1ccc(-c2cncc(C(=O)NOCc3cccc(O)c3)n2)cc1 [Compound 7, 6-(4-ethoxyphenyl)-N-((3-hydroxybenzyl)oxy)pyrazine-2-carboxamide]
> 1000 | > 1000 | CCOc1ccc(-c2cncc(C(=O)NOCc3cc(OC)ccc3C)n2)cn1 [Compound 47, 6-(6-ethoxypyridine-3-yl)-N-((5-methoxy-2-methylbenzyl)oxy)pyrazine-2-carboxamide]
< 500 | 500 to 1000 | CCOc1ccc(-c2cncc(C(=O)NOCc3cc(OC)ccc3Cl)n2)cc1 [Compound 11, N-((2-chloro-5-methoxybenzyl)oxy)-6-(4-ethoxyphenyl)pyrazine-2-carboxamide]
< 500 | > 1000 | CCOc1ccc(-c2cncc(C(=O)NOCc3[nH]ccc3C)n2)cn1 [Compound 67, 6-(6-ethoxypyridine-3-yl)-N-((3-methyl-1H-pyrrole-2-yl)methoxy)pyrazine-2-carboxamide]
> 1000 | > 1000 | CCOc1ccc(-c2cncc(C(=O)NOCc3ccnn3CC)n2)cn1 [Compound 62, 6-(6-ethoxypyridine-3-yl)-N-((1-ethyl-1H-pyrazole-5-yl)methoxy)pyrazine-2-carboxamide]
> 1000 | > 1000 | COc1cc(CONC(=O)c2cncc(-c3ccc(OC(F)F)nc3)n2)c(F)cn1 [Compound 79, 6-(6-(difluoromethoxy)pyridine-3-yl)-N-((5-fluoro-2-methoxypyridine-4-yl)methoxy)pyrazine-2-carboxamide]
< 500 | > 1000 | CCOc1ccc(-c2cncc(C(=O)NOCc3cccc(OC)c3)n2)cn1 [Compound 33, 6-(6-ethoxypyridine-3-yl)-N-((3-methoxybenzyl)oxy)pyrazine-2-carboxamide]
> 1000 | > 1000 | CCOc1ccc(-c2cncc(C(=O)NOCc3cncc(OC)c3)n2)cc1 [Compound 8, 6-(4-ethoxyphenyl)-N-((5-methoxypyridine-3-yl)methoxy)pyrazine-2-carboxamide]
< 500 | > 1000 | O=C(NOCc1cccnc1)c1cncc(-c2ccc(OC(F)(F)F)nc2)n1 [Compound 74]
> 1000 | > 1000 | [2H]C([2H])([2H])COc1ccc(-c2cncc(C(=O)NOCc3cc(OC([2H])([2H])[2H])ccc3F)n2)cn1 [Compound 52, 6-(6-(ethoxy-2,2,2-d3)pyridine-3-yl)-N-((2-fluoro-5-(methoxy-d3)benzyl)oxy)pyrazine-2-carboxamide]
< 500 | > 1000 | CCOc1ccc(-c2cncc(C(=O)NOCc3cc(OC(C)C)ccc3F)n2)cc1 [Compound 10, 6-(4-ethoxyphenyl)-N-((2-fluoro-5-isopropoxybenzyl)oxy)pyrazine-2-carboxamide]
> 1000 | > 1000 | CCOc1ccc(-c2cncc(C(=O)NOCc3cc(OC)cnc3C)n2)cn1 [Compound 46, 6-(6-ethoxypyridine-3-yl)-N-((5-methoxy-2-methylpyridine-3-yl)methoxy)pyrazine-2-carboxamide]
> 1000 | > 1000 | [2H]C([2H])([2H])Oc1ccc(F)c(CONC(=O)c2cncc(-c3ccc(OC([2H])([2H])C([2H])([2H])[2H])nc3)n2)c1 [Compound 53, 6-(6-(ethoxy-d5)pyridine-3-yl)-N-((2-fluoro-5-(methoxy-d3)benzyl)oxy)pyrazine-2-carboxamide]
< 500 | > 1000 | COc1ccc(F)c(CONC(=O)c2cncc(-c3ccc(OCCC4CN(C)C4)cc3)n2)c1 [Compound 27, N-((2-fluoro-5-methoxybenzyl)oxy)-6-(4-(2-(1-methylazetidine-3-yl)ethoxy)phenyl)pyrazine-2-carboxamide]
< 500 | > 1000 | COc1cncc(CONC(=O)c2cncc(-c3ccc(OC(F)F)cc3)n2)c1 [Compound 28, 6-(4-(difluoromethoxy)phenyl)-N-((5-methoxypyridine-3-yl)methoxy)pyrazine-2-carboxamide]
> 1000 | > 1000 | COc1ccc(F)c(CONC(=O)c2cncc(-c3ccc([S+](C)[O-])cc3)n2)c1 (stereo not shown) [Compound 29, N-((2-fluoro-5-methoxybenzyl)oxy)-6-(4-(methylsulfinyl)phenyl)pyrazine-2-carboxamide]
> 1000 | > 1000 | CCOc1ccc(-c2cncc(C(=O)NOCc3ccccc3O)n2)cn1 [Compound 34, 6-(6-ethoxypyridine-3-yl)-N-((2-hydroxybenzyl)oxy)pyrazine-2-carboxamide]
< 500 | > 1000 | CCOc1ccc(-c2cncc(C(=O)NOCc3cc(C(C)N)ccc3F)n2)cc1 (stereo not shown) [Compound 17, N-((5-(1-aminoethyl)-2-fluorobenzyl)oxy)-6-(4-ethoxyphenyl)pyrazine-2-carboxamide]
< 500 | > 1000 | COc1ccc(-c2cncc(C(=O)NOCc3cc(OC)ccc3F)n2)cc1 [Compound 2, N-((2-fluoro-5-methoxybenzyl)oxy)-6-(4-methoxyphenyl)pyrazine-2-carboxamide]
< 500 | 500 to 1000 | CCOc1ccc(-c2cncc(C(=O)NOCc3cccn3C)n2)cn1 [Compound 60, 6-(6-ethoxypyridine-3-yl)-N-((1-methyl-1H-pyrrole-2-yl)methoxy)pyrazine-2-carboxamide]

From patent publication EP4660184A1 (Eurofarma Laboratórios S.A., priority 2023, dated 2024)
